Data as given in US20150291598A1 (NOVARTIS AG, priority 2012, published 2015).
Read-outs that look alike come from different tables or passages of the source.

Test system: P. falciparum (NF54 or 3D7 strain)
Experiment: Assay for P. falciparum proliferation in infected human blood cells (SYBR Green)
Type: cell-based, Plasmodium falciparum
In short: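 NF54 or 3D7 parasites in O+ human erythrocytes at 2.5% hematocrit and 0.3% parasitemia final, exposed to compounds 72 h at 37 °C under 93% N2/4% CO2/3% O2.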

[1] = Plasmodium falciparum, Erythrocyte, 72 h, NF54 or 3D7 infected human erythrocytes, 72 hours, read-out: EC50 (nM), inhibitory efficacy in delaying P. falciparum proliferation in infected human blood cells
[2] = Plasmodium falciparum, Erythrocyte, infected human red blood cells, read-out: EC50, P. falciparum Proliferation Assay

SMILES | EC50 [1] [nM] | EC50 [2] [nM] | EC50 (NF54 or 3D7 infected human erythrocytes, 72 hours, read-out: EC50 (nM), inhibitory efficacy in delaying P. falciparum proliferation in infected human blood cells) [nM]
CN(C(=O)c1cn2c(-c3ccc(NC(=O)C4(CN)CC4)cc3)cnc2cn1)c1ccc(C#N)cc1 [Compound 307, 3-(4-{[1-(aminomethyl)cyclopropane]amido}phenyl)-N-(4-cyanophenyl)-N-methylimidazo[1,2-a]pyrazine-6-carboxamide] | 1070 |  | 
CN(C(=O)c1cn2c(-c3ccc(C(F)(F)F)cc3)cnc2cn1)c1ccc(C(F)(F)F)nc1 [Compound 239, N-methyl-3-[4-(trifluoromethyl)phenyl]-N-[6-(trifluoromethyl)pyridin-3-yl]imidazo[1,2-a]pyrazine-6-carboxamide] | 6880 |  | 
CN(C)c1ccc(-c2cnc3cnc(C(=O)N(C)c4ccc(Cl)cc4)cn23)cc1 [Compound 122, N-(4-chlorophenyl)-3-[4-(dimethylamino)phenyl]-N-methylimidazo[1,2-a]pyrazine-6-carboxamide] | 266 |  | 
O=C(c1cn2c(-c3ccc(C(F)(F)F)cc3)cnc2cn1)N1CCOCC1 [Compound 374, 4-({3-[4-(trifluoromethyl)phenyl]imidazo[1,2-a]pyrazin-6-yl}carbonyl)morpholine] | > 9820 |  | 
CNc1ccc(-c2cnc3cnc(C(=O)N(C)c4ccc(Cl)nc4)cn23)cn1 [Compound 407, N-(6-chloropyridin-3-yl)-N-methyl-3-[6-(methylamino)pyridin-3-yl]imidazo[1,2-a]pyrazine-6-carboxamide] | > 8970 |  | 
COC(C)c1ccc(-c2cnc3cnc(C(=O)N(C)c4ccc(C#N)cc4)cn23)cc1 (stereo not shown) [Compound 130, N-(4-cyanophenyl)-3-[4-(1-methoxyethyl)phenyl]-N-methylimidazo[1,2-a]pyrazine-6-carboxamide] | 176 |  | 
CN(Cc1cn2c(-c3ccc(Cl)cc3)cnc2cn1)c1ccc(F)cc1 [Compound 18, N-{[3-(4-chlorophenyl)imidazo[1,2-a]pyrazin-6-yl]methyl}-4-fluoro-N-methylaniline] | 78 |  | 
CN(C(=O)c1cn2c(-c3ccc4c(ccn4C)c3)cnc2cn1)c1ccc(F)cc1 [Compound 136, N-(4-fluorophenyl)-N-methyl-3-(1-methyl-1H-indol-5-yl)imidazo[1,2-a]pyrazine-6-carboxamide] | 320 |  | 
Cc1ccc(N(C)Cc2cn3c(-c4ccc(-c5ccn[nH]5)cc4)cnc3cn2)nc1 [Compound 47, N,5-dimethyl-N-({3-[4-(1H-pyrazol-5-yl)phenyl]imidazo[1,2-a]pyrazin-6-yl}methyl)pyridin-2-amine] | 1240 | < 50 | 
CC(N)C(=O)Nc1ccc(-c2cnc3cnc(C(=O)N(C)c4ccc(C#N)cc4)cn23)cc1 (stereo in doubt) [Compound 271, 3-{4-[(2S)-2-aminopropanamido]phenyl}-N-(4-cyanophenyl)-N-methylimidazo[1,2-a]pyrazine-6-carboxamide] | 207 |  | 
CN(C(=O)c1cn2c(-c3ccc(C(F)(F)F)cc3)cnc2cn1)c1cccc(F)c1 [Compound 137, N-(3-fluorophenyl)-N-methyl-3-[4-(trifluoromethyl)phenyl]imidazo[1,2-a]pyrazine-6-carboxamide] | 226 |  | 
CN(C(=O)c1cn2c(-c3ccc4ncccc4c3)cnc2cn1)c1ccc(C#N)cc1 [Compound 157, N-(4-cyanophenyl)-N-methyl-3-(quinolin-6-yl)imidazo[1,2-a]pyrazine-6-carboxamide] | 2010 |  | 
CN(C(=O)c1cn2c(-c3ccc(Cl)cc3)cnc2cn1)c1ccc(F)cc1 [Compound 103, 3-(4-chlorophenyl)-N-(4-fluorophenyl)-N-methylimidazo[1,2-a]pyrazine-6-carboxamide] | 51 |  | 
CN(C(=O)c1cn2c(-c3ccc(C(F)(F)F)c(F)c3)cnc2cn1)c1ccc(Cl)nc1 [Compound 332, N-(6-chloropyridin-3-yl)-3-[3-fluoro-4-(trifluoromethyl)phenyl]-N-methylimidazo[1,2-a]pyrazine-6-carboxamide] | 3410 |  | 
CN(C(=O)c1cn2c(-c3ccc4occc4c3)cnc2cn1)c1ccc(Cl)nc1 [Compound 325, 3-(1-benzofuran-5-yl)-N-(6-chloropyridin-3-yl)-N-methylimidazo[1,2-a]pyrazine-6-carboxamide] | 4140 |  | 
CNc1nnc(-c2ccc(-c3cnc4cnc(C(=O)N(C)c5ccc(Cl)cc5)cn34)cc2)o1 [Compound 483, N-(4-chlorophenyl)-N-methyl-3-{4-[5-(methylamino)-1,3,4-oxadiazol-2-yl]phenyl}imidazo[1,2-a]pyrazine-6-carboxamide] | 9 | < 50 | 
CN(C(=O)c1cn2c(-c3ccc(C(F)(F)F)cc3)cnc2cn1)c1ccc(C2CCCC2)cn1 [Compound 412, N-(5-cyclopentylpyridin-2-yl)-N-methyl-3-[4-(trifluoromethyl)phenyl]imidazo[1,2-a]pyrazine-6-carboxamide] | 7880 |  | 
CN(C(=O)c1cn2c(-c3ccc(Cl)c(C#N)c3)cnc2cn1)c1ccc(C#N)cc1 [Compound 155, 3-(4-chloro-3-cyanophenyl)-N-(4-cyanophenyl)-N-methylimidazo[1,2-a]pyrazine-6-carboxamide] | 2390 |  | 

SMILES | EC50 [1] [nM] | EC50 [2] [nM] | EC50 (NF54 or 3D7 infected human erythrocytes, 72 hours, read-out: EC50 (nM), inhibitory efficacy in delaying P. falciparum proliferation in infected human blood cells) [nM]
CN(C(=O)c1cn2c(-c3ccc(OC(F)F)cc3)cnc2cn1)c1ccc(F)c(F)c1 [Compound 142, 3-[4-(difluoromethoxy)phenyl]-N-(3,4-difluorophenyl)-N-methylimidazo[1,2-a]pyrazine-6-carboxamide] | 202 |  | 
COc1ccc(-c2cnc3cnc(C(=O)N(C)c4ccc(C#N)cc4)cn23)cc1 [Compound 67, N-(4-cyanophenyl)-3-(4-methoxyphenyl)-N-methylimidazo[1,2-a]pyrazine-6-carboxamide] | 168 |  | 
CN(C(=O)c1cn2c(-c3ccc(-c4ccn[nH]4)cc3)cnc2cn1)c1ccc(Cl)cc1 [Compound 13, N-(4-chlorophenyl)-N-methyl-3-[4-(1H-pyrazol-5-yl)phenyl]imidazo[1,2-a]pyrazine-6-carboxamide] | 41 |  | 
CN(C(=O)c1cn2c(-c3ccc(N4CCCC4)nc3)cnc2cn1)c1ccc(C#N)cc1 [Compound 82, N-(4-cyanophenyl)-N-methyl-3-[6-(pyrrolidin-1-yl)pyridin-3-yl]imidazo[1,2-a]pyrazine-6-carboxamide] | 2340 |  | 
CN(C(=O)c1cn2c(C(=O)Nc3ccc(C(F)(F)F)cc3)cnc2cn1)c1ccc(Cl)nc1 [Compound 403, 6-N-(6-chloropyridin-3-yl)-6-N-methyl-3-N-[4-(trifluoromethyl)phenyl]imidazo[1,2-a]pyrazine-3,6-dicarboxamide] | > 5980 |  | 
Cc1cc(N(C)C(=O)c2cn3c(-c4ccc(C(F)(F)F)cc4)cnc3cn2)ccn1 [Compound 299, N-methyl-N-(2-methylpyridin-4-yl)-3-[4-(trifluoromethyl)phenyl]imidazo[1,2-a]pyrazine-6-carboxamide] | 1130 |  | 
CN(C(=O)c1cn2c(-c3cn[nH]c3)cnc2cn1)c1ccc(C#N)cc1 [Compound 200, N-(4-cyanophenyl)-N-methyl-3-(1H-pyrazol-4-yl)imidazo[1,2-a]pyrazine-6-carboxamide] | > 10000 |  | 
O=C(c1cn2c(-c3ccc(C(F)(F)F)cc3)cnc2cn1)N1CCS(=O)(=O)c2ccccc21 [Compound 494, (1,1-dioxido-2H-benzo[b][1,4]thiazin-4(3H)-yl)(3-(4-(trifluoromethyl)phenyl)imidazo[1,2-a]pyrazin-6-yl)methanone] | 3350 |  | 
CN(C(=O)c1cn2c(-c3ccc(C(F)(F)F)cc3)cnc2cn1)c1ccc2c(c1)nnn2C [Compound 12, N-methyl-N-(1-methyl-1H-benzo[d][1,2,3]triazol-5-yl)-3-(4-(trifluoromethyl)phenyl)imidazo[1,2-a]pyrazine-6-carboxamide] | 4850 |  | 
CN(C(=O)c1cn2c(-c3ccc(C(F)(F)F)nc3)cnc2cn1)c1ccc(C#N)cc1 [Compound 187, N-(4-cyanophenyl)-N-methyl-3-[6-(trifluoromethyl)pyridin-3-yl]imidazo[1,2-a]pyrazine-6-carboxamide] | 1380 |  | 
Cc1ncccc1N(C)C(=O)c1cn2c(-c3ccc(C(F)(F)F)cc3)cnc2cn1 [Compound 420, N-methyl-N-(2-methylpyridin-3-yl)-3-[4-(trifluoromethyl)phenyl]imidazo[1,2-a]pyrazine-6-carboxamide] | > 10000 |  | 
CN(C(=O)c1cn2c(-c3ccc(C(F)(F)F)cc3)cnc2cn1)c1ccc(C(F)(F)F)cn1 [Compound 337, N-methyl-3-[4-(trifluoromethyl)phenyl]-N-[5-(trifluoromethyl)pyridin-2-yl]imidazo[1,2-a]pyrazine-6-carboxamide] | > 7160 |  | 
CN(C(=O)c1cn2c(-c3ccc(OC(F)F)cc3)cnc2cn1)c1ccc(Cl)cc1 [Compound 102, N-(4-chlorophenyl)-3-[4-(difluoromethoxy)phenyl]-N-methylimidazo[1,2-a]pyrazine-6-carboxamide] | 53 |  | 
CN(C(=O)c1cn2c(-c3ccc4c(cnn4C)c3)cnc2cn1)c1ccc(F)cc1 [Compound 107, N-(4-fluorophenyl)-N-methyl-3-(1-methyl-1H-indazol-5-yl)imidazo[1,2-a]pyrazine-6-carboxamide] |  |  | 218
CN(C(=O)c1cn2c(-c3ccc(-c4nnc(N)o4)cc3)cnc2cn1)c1ccc(C#N)cc1 [Compound 248, 3-[4-(5-amino-1,3,4-oxadiazol-2-yl)phenyl]-N-(4-cyanophenyl)-N-methylimidazo[1,2-a]pyrazine-6-carboxamide] | 87 |  | 
CN(Cc1cn2c(-c3ccc(Cl)cc3)cnc2cn1)c1ccc(C#N)cc1 [Compound 4, 4-(((3-(4-chlorophenyl)imidazo[1,2-a]pyrazin-6-yl)methyl)(methyl)amino)benzonitrile] | 185 |  | 
CN(C(=O)c1cn2c(-c3ccc(C(F)(F)F)cc3)cnc2cn1)c1ccc(F)c(Br)c1 [Compound 52, N-(3-bromo-4-fluorophenyl)-N-methyl-3-[4-(trifluoromethyl)phenyl]imidazo[1,2-a]pyrazine-6-carboxamide] | 187 |  | 
